Experimental data reported in article PMC2959089, “The intriguing Cyclophilin A-HIV-1 Vpr interaction: prolyl cis/trans isomerisation catalysis and specific binding” (BMC Structural Biology, 2010).
No end group written: not given here.

How the values were obtained:
CypA [1] = molecular target: T1, CypA (Homo sapiens, UniProt P62937); assay: biochemical; assay type: binding; settings: for kon: pH 7.4, read-out: ka1 (association rate constant), two state reaction model; for koff: pH 7.4, read-out: kd1 (dissociation rate constant), two state reaction model
T1 construct: made in house; host or cells: E. coli BL21(DE3)
T1 sequence (P62937 whole entry): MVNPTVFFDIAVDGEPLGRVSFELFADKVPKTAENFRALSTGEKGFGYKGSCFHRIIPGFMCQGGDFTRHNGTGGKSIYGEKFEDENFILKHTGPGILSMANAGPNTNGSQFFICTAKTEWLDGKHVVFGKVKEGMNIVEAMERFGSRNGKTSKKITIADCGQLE
Procedure: The two-state binding model, also called the conformational change model, is based on a 1:1 binding of an analyte to the immobilized ligand followed by a conformational change in the complex. This model should be regarded as indicative, rather than as direct evidence, for a conformational change upon binding. […] From the two-state binding model the association rate (ka1), dissociation rate (kd1), forward rate (ka2) and backward rate (kd2) constants were calculated, and subsequently the magnitude of the dissociation constants (KD) could be calculated ([…] (Table 1).
(§1) SPR measurements were performed at 25°C on a Biacore T100 instrument (Biacore AB, Uppsala, Sweden) equipped with a CM5 research-grade sensor chip. CypA was immobilized in FC 2 and FC 4 to 180 and 918 RU (response units) respectively, using standard amine-coupling chemistry in two flow cells. FC 1 and FC 3 were treated according to FC 2 and FC 4 except for CypA immobilisation and functioned as reference cells. The synthetic Vpr peptides sVpr^1-20, sVpr^21-40, sVpr^25-40, sVpr^30-40, sVpr^32-38 and sVpr^33-37 were dissolved at four concentrations ranging from 50 to 400 μM in the running buffer (HBS-P buffer pH 7.4). […] The samples were injected over the flow cells at a flow rate of 30 μl/min. Data were collected at 2.5 Hz during the 60 s association and 120 s dissociation phase, and were automatically corrected for bulk buffer effects and unspecific binding of Vpr peptides to the chip matrix.
Affinity, association and dissociation rate constants were obtained from sensograms by the Biacore T100 evaluation software version 2.0.1 in accordance with the global curve fit model. Sensorgram data for the four different concentrations were fitted to several binding models including 1:1 (Langmuir) binding model (A+B ↔ AB), two-state reaction (conformational change) model (A+B ↔ AB ↔ AB*) and heterogeneous ligand model (interaction one: A+B1 ↔ AB1; interaction two: A+B2 ↔ AB2). Kinetic constants were calculated for the best fitted model.

[2] = Solubility of sVpr peptides in aqueous buffer (observation during SPR sample preparation); assay type: physicochemical; settings: for Solubility in SPR running buffer: HBS-P buffer pH 7.4, dissolved at 25-200 μM instead of 50-400 μM
Procedure: as §1

CypA [3] = molecular target: T1, CypA; assay: 2D 1H NOESY/ROESY NMR exchange spectroscopy of CypA prolyl cis/trans isomerase activity on sVpr peptides and its inhibition by cyclosporine A; assay type: biochemical; settings: excess cyclosporine A (0.1 mg in 5 μl DMSO-d6) added after CypA
Procedure: After acquisition of 1 D ^1H and 2D ^1H TOCSY, NOESY and ROESY NMR spectra of pure sVpr^1-20 and sVpr^21-40, 50-100 μl 0.11 mM CypA dissolved in aqueous Tris buffer at pH 7 was added to the individual peptide solutions, followed by acquisition of identical series of NMR spectra (1 D ^1H and 2D ^1H TOCSY, NOESY and ROESY) to those of the pure peptides. Exchange peaks occurring in the spectra after addition of CypA were identified by supposition of analogous NOESY and/or ROESY spectra prior to and after addition of CypA using Bruker Topspin 1.3 software.
The catalytic prolyl cis/trans isomerase interactions of CypA with sVpr^1-20 and sVpr^21-40 was inhibited by addition of excessive amounts of cyclosporine A dissolved in 5 μl deuterated dimethylsulfoxide (DMSO-d6).

HIV = settings: specific inhibitors of the prolyl cis/trans isomerase activity of CypA; cited from earlier work
From the text: The interaction of HIV-1 Vpr with CypA is known to occur in vitro and in vivo [9-11]. […] Nonetheless, spe ...

Compound	kon (CypA [1])	koff (CypA [1])	further results
CC[C@H](C)[C@H](NC(=O)[C@H](CCCNC(=N)N)NC(=O)[C@@H]1CCCN1C(=O)[C@H](Cc1ccccc1)NC(=O)[C@H](Cc1c[nH]cn1)NC(=O)[C@H](CCCNC(=N)N)NC(=O)[C@@H](NC(=O)[C@H](C)N)C(C)C)C(=O)N[C@@H](Cc1c[nH]c2ccccc12)C(=O)N[C@@H](CC(C)C)C(=O)N[C@@H](Cc1c[nH]cn1)C(=O)O [sVpr^30-40]	2470 M⁻¹ s⁻¹	0.527 s⁻¹	
CC[C@H](C)[C@H](NC(=O)[C@H](CCCNC(=N)N)NC(=O)[C@@H]1CCCN1C(=O)[C@H](Cc1ccccc1)NC(=O)[C@H](Cc1c[nH]cn1)NC(=O)[C@H](CCCNC(=N)N)NC(=O)[C@@H](NC(=O)[C@H](C)NC(=O)[C@H](CCC(=O)O)NC(=O)[C@H](CO)NC(=O)[C@H](CCCCN)NC(=O)[C@H](CC(C)C)NC(=O)[C@@H](N)CCC(=O)O)C(C)C)C(=O)N[C@@H](Cc1c[nH]c2ccccc12)C(=O)N[C@@H](CC(C)C)C(=O)N[C@@H](Cc1c[nH]cn1)C(=O)O [sVpr^25-40]	2000 M⁻¹ s⁻¹	0.942 s⁻¹	
CC[C@H](C)[C@H](NC(=O)[C@H](CCCNC(=N)N)NC(=O)[C@@H]1CCCN1C(=O)[C@H](Cc1ccccc1)NC(=O)[C@H](Cc1c[nH]cn1)NC(=O)[C@H](CCCNC(=N)N)NC(=O)[C@@H](NC(=O)[C@H](C)NC(=O)[C@H](CCC(=O)O)NC(=O)[C@H](CO)NC(=O)[C@H](CCCCN)NC(=O)[C@H](CC(C)C)NC(=O)[C@H](CCC(=O)O)NC(=O)[C@H](CCC(=O)O)NC(=O)[C@H](CC(C)C)NC(=O)[C@H](CC(C)C)NC(=O)[C@H](CCC(=O)O)NC(=O)[C@H](CC(C)C)NC(=O)[C@@H](NC(=O)[C@@H](NC(=O)[C@H](Cc1c[nH]c2ccccc12)NC(=O)[C@H](CCC(=O)O)NC(=O)[C@H](CC(N)=O)NC(=O)[C@H](Cc1ccc(O)cc1)NC(=O)[C@@H]1CCCN1C(=O)[C@H](CCC(=O)O)NC(=O)[C@H](CCCNC(=N)N)NC(=O)[C@H](CCC(N)=O)NC(=O)[C@@H]1CCCN1C(=O)CNC(=O)[C@H](CCC(N)=O)NC(=O)[C@H](CC(=O)O)NC(=O)[C@H](CCC(=O)O)NC(=O)[C@@H]1CCCN1C(=O)[C@H](C)NC(=O)[C@H](CCC(N)=O)NC(=O)[C@H](CCC(=O)O)NC(=O)[C@@H](N)CCSC)[C@@H](C)O)[C@@H](C)O)C(C)C)C(=O)N[C@@H](Cc1c[nH]c2ccccc12)C(=O)N[C@@H](CC(C)C)C(=O)N[C@@H](Cc1c[nH]cn1)C(=O)O [sVpr^1-40]	752 M⁻¹ s⁻¹	0.37 s⁻¹	Solubility in SPR running buffer [2]: restricted solubility; Kd (CypA [1]): 284 µM
CC[C@H](C)[C@H](NC(=O)[C@H](CCCNC(=N)N)NC(=O)[C@@H]1CCCN1C(=O)[C@H](Cc1ccccc1)NC(=O)[C@H](Cc1c[nH]cn1)NC(=O)[C@H](CCCNC(=N)N)NC(=O)[C@@H](NC(=O)[C@H](C)NC(=O)[C@H](CCC(=O)O)NC(=O)[C@H](CO)NC(=O)[C@H](CCCCN)NC(=O)[C@H](CC(C)C)NC(=O)[C@H](CCC(=O)O)NC(=O)[C@H](CCC(=O)O)NC(=O)[C@H](CC(C)C)NC(=O)[C@H](CC(C)C)NC(=O)[C@@H](N)CCC(=O)O)C(C)C)C(=O)N[C@@H](Cc1c[nH]c2ccccc12)C(=O)N[C@@H](CC(C)C)C(=O)N[C@@H](Cc1c[nH]cn1)C(=O)O [sVpr^21-40]	466 M⁻¹ s⁻¹	0.164 s⁻¹	
CC[C@H](C)[C@H](NC(=O)[C@H](CCCNC(=N)N)NC(=O)[C@@H]1CCCN1C(=O)[C@H](Cc1ccccc1)NC(=O)[C@H](Cc1c[nH]cn1)NC(=O)[C@H](CCCNC(=N)N)NC(=O)[C@@H](NC(=O)[C@H](C)NC(=O)[C@H](CCC(=O)O)NC(=O)[C@H](CO)NC(=O)[C@H](CCCCN)NC(=O)[C@H](CC(C)C)NC(=O)[C@H](CCC(=O)O)NC(=O)[C@H](CCC(=O)O)NC(=O)[C@H](CC(C)C)NC(=O)[C@H](CC(C)C)NC(=O)[C@H](CCC(=O)O)NC(=O)[C@H](CC(C)C)NC(=O)[C@@H](NC(=O)[C@@H](NC(=O)[C@H](Cc1c[nH]c2ccccc12)NC(=O)[C@H](CCC(=O)O)NC(=O)[C@H](CC(N)=O)NC(=O)[C@H](Cc1ccc(O)cc1)NC(=O)[C@H](CC(N)=O)NC(=O)[C@H](CCC(=O)O)NC(=O)[C@H](CCCNC(=N)N)NC(=O)[C@H](CCC(N)=O)NC(=O)[C@H](CC(N)=O)NC(=O)CNC(=O)[C@H](CCC(N)=O)NC(=O)[C@H](CC(=O)O)NC(=O)[C@H](CCC(=O)O)NC(=O)[C@H](CC(N)=O)NC(=O)[C@H](C)NC(=O)[C@H](CCC(N)=O)NC(=O)[C@H](CCC(=O)O)NC(=O)[C@@H](N)CCSC)[C@@H](C)O)[C@@H](C)O)C(C)C)C(=O)N[C@@H](Cc1c[nH]c2ccccc12)C(=O)N[C@@H](CC(C)C)C(=O)N[C@@H](Cc1c[nH]cn1)C(=O)O [sVpr^1-40 P5,10,14 N]	46 M⁻¹ s⁻¹	0.56 s⁻¹	Solubility in SPR running buffer [2]: restricted solubility; Solubility in aqueous buffer solution ([2]; aqueous buffer solution at pH 7, offered as possible reason for unreliable KD): relatively poor solubility
HFPRI [sVpr^33-37]	120 M⁻¹ s⁻¹	0.66 s⁻¹	
cyclosporine A			Inhibition of CypA prolyl cis/trans isomerase activity (exchange crosspeaks after addition of inhibitor) (CypA [3]; substrate sVpr1-20): disappearance of the prolyl cis/trans exchange crosspeaks; Inhibition of CypA prolyl cis/trans isomerase activity (exchange crosspeaks after addition of inhibitor) (CypA [3]; substrate sVpr21-40): prolyl cis/trans exchange crosspeaks disappeared; Inhibition of HIV replication (HIV): inhibit HIV replication
RHFPRIW [sVpr^32-38]	924 M⁻¹ s⁻¹	0.67 s⁻¹	
